Reference: patent US10935546B2, “Fluorescent AMP-kinase biosensors” (Universite Grenoble Alpes, priority 2015, dated 2021)

Legend:
AMPfret 2.1 = biological target: T1, AMPfret 2.1 (UniProt O43741+P80385+Q09137); test: FRET assay with purified AMPfret 2.1 sensor (fluorimeter); format: binding, rat α2 and γ1, human β2; details: 50 μM A-769662 or 500 μM Metformin, compared with 20 μM AMP (FIG. 6)
T1 construct: decaHis tag with TEV site (N); made in house; host or cells: E. coli BL21 (DE3) Star
Protocol: The FRET ratio was calculated from fluorescence emission spectra excited at 430 nm. Data points correspond to mean±SEM (n>3).
Structure and names of the molecules are given below the bars.
FRET assay: FRET signal variation in presence of different compounds (nucleotides, chemicals, ions) was measured using a fluorimeter (Photon Technology International). AMPfret constructs (20 pmol) were incubated in a quartz cuvette in a final volume of 150 μL (spectro buffer: 50 mM Tris pH8, 200 mM NaCl, 5 mM MgCl2, 2 mM β-mercaptoethanol). Effects of nucleotides and others compounds (previously prepared in the spectro buffer) on the FRET ratio given by AMPfret sensor was determined by comparing FRET ratio (peak value at 527 nm/peak value at 476 nm) in presence or absence of the compounds. Excitation wavelength was set to 430 nm, and emission spectra were recorded from 450 to 600 nm with an integration time of 0.2 s. Mg^2+ effect on FRET was investigated in spectro buffer without Mg^2+.

[1] = tested on: AMPfret 2.1 in 3T3-L1 or HeLa cells; details: 1 mM AICAR
Protocol: HeLa cells transfected with AMPFret 2.1 were exposed for 60 min to 1 mM AICAR. […] (b) Time course of the FRET signal. […] (c) AMPK activation at t=0 min and t=60 min. Phosphorylation of the AMPK substrate ACC as determined by immunoblotting (lower panel) and quantification of the resulting P-ACC/total ACC ratio (upper panel). P-ACC/total ACC ratios at t=0 and t=60 min are respectively represented as a white dotted bar and black dotted bar. Data correspond to mean±SEM (n=3).
For cellular ex vivo experiments, subunits of the optimized construct AMPfret 2.1 were cloned in the vectors (pACEMam2, pMDS and pMDK) of the MultiMam expression system. Created plasmids were fused via their Lox-P site to yield to a single mammalian expression vector coding for the sensor AMPFret 2.1 according to well-known techniques to the skilled man in the art.
3T3-L1 and HeLa cells were cultivated in glucose containing DMEM (4.5 g/L) supplemented with SVF, glutamine, penicillin and streptomycin. Once cells reached around 80% confluence, medium was replaced by OptiMEM (Lifetechnologies) and AMPfret 2.1 coding plasmid was transfected using Lipofectamine2000 (Lifetechnologies). After 5 h, OptiMEM was exchanged by complete DMEM and cells grew for >36 h until their observations under the confocal microscope.
LabTek plates were placed in an incubation chamber in which the temperature and O2 concentration were maintained at 37° C. and 21%, respectively. Without moving the Labtek, 200 μL medium was replaced by the same volume of complete medium containing 2 mM AICAR (1 mM final). Excitation wavelength was set to 458 nm and emission spectra showing FRET signal were monitored through A scans from 463 nm to 600 nm every 15 min. ROI (region of interest) were drawn in order to cover entire cells. FRET ratio variations were calculated from those measured emission spectra.
AMPfret 2.1 was excited using a 458 nm laser and emission spectra showing FRET signal were monitored through A scans from 463 nm to 600 nm every 15 min.

[2] = FRET signal variation of AMPfret constructs upon AMP/ADP binding; details: 3 mM ATP vs 20 μM AMP (FIG. 2)
Excerpt: Top: Schema showing structural organization of the sensors. CFP and YFP are respectively represented as hatched- and dotted-circles. (a) Fluorescence emission spectra of AMPfret constructs excited at 430 nm. […] Data correspond to mean±SEM (AMPfret A: n=7; AMPfret C: n=10).
Second generation of AMPfret constructs 1.1 and 2.1. based on constructs AMPfret C and A, respectively. Top: Schema showing structural organization of the sensors. Both optimized constructs contain mseCFPΔ11/cpVenus as GFP-derived fluorescent couple instead of CFP/YFP. mseCFPΔ11 and cpVenus are respectively represented as hatched- and checkered circles. […] (a) Fluorescence emission spectra of AMPfret constructs excited at 430 nm. […] Data correspond to mean±SEM (AMPfret 1.0: n=10; AMPfret 1.1: n=7); *=p<0.001 (significance assessed by a Student-Newman-Keuls test).
FRET assay: FRET signal variation in presence of different compounds (nucleotides, chemicals, ions) was measured using a fluorimeter (Photon Technology International). […] Effects of nucleotides and others compounds (previously prepared in the spectro buffer) on the FRET ratio given by AMPfret sensor was determined by comparing FRET ratio (peak value at 527 nm/peak value at 476 nm) in presence or absence of the compounds. Excitation wavelength was set to 430 nm, and emission spectra were recorded from 450 to 600 nm with an integration time of 0.2 s. […]

T1 sequence (Q09137 1-550): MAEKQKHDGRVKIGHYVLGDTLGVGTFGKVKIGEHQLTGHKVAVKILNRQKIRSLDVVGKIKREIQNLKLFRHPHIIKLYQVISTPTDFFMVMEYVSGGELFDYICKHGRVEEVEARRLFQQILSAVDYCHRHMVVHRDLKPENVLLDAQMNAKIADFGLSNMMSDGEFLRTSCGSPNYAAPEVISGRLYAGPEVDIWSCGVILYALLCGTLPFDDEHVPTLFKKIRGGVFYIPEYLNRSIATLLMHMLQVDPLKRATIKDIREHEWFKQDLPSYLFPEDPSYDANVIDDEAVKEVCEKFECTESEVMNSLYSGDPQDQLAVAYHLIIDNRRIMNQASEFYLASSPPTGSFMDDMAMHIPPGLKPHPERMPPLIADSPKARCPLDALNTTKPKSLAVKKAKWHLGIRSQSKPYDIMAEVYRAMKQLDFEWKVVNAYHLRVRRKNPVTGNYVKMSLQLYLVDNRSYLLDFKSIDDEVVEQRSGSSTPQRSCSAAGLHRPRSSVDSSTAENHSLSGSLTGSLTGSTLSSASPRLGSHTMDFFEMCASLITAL
T1 sequence (O43741 1-269): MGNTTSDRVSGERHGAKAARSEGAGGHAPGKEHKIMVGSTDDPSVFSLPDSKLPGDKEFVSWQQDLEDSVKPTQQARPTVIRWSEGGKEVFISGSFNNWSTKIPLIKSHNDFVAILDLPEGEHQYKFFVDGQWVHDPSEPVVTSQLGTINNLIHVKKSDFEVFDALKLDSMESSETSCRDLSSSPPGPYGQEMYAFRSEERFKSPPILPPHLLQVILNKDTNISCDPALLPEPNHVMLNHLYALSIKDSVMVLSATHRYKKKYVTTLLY
T1 sequence (P80385 whole entry): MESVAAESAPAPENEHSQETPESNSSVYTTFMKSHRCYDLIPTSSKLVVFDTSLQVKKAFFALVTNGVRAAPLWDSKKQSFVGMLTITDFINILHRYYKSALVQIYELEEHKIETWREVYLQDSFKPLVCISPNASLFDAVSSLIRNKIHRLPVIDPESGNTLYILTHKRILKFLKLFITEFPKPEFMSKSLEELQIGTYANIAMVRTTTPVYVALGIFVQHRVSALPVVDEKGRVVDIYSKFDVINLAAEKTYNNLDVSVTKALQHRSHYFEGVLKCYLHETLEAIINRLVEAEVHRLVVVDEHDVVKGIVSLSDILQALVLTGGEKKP

Molecule	FRET signal induced in AMPfret in vitro (AMPfret 2.1)	difference in FRET signal depending on the presence of AMP or ADP [2]	further results
N#Cc1c(O)c2c(-c3ccc(-c4ccccc4O)cc3)csc2[nH]c1=O [A-769662]	induces a FRET signal comparable to AMP	–	–
NC(=O)c1ncn([C@@H]2O[C@H](CO)[C@@H](O)[C@H]2O)c1N [AICAR, 5′-Aminoimidazole-4-carboxamide ribonucleoside]	–	–	time to maximal effect on FRET signal [1]: about 30 minutes; AMPfret 2.1 FRET signal upon AICAR addition ([1]; 60 min, read every 15 min, HeLa and 3T3-L1 cells): increased with time; FRET response after 15 min of treatment ([1]; 15 min): More than half-maximal response; cpVenus peak (527 nm) in fluorescence emission spectra over time ([1]; HeLa cells transfected with AMPFret 2.1, 0, 15, 30 min): increase of cpVenus peak
AMPfret C: AMPK heterotrimer: rat alpha2-CFP (SEQ ID NO:5), human beta2 (SEQ ID NO:9), rat gamma1-YFP (SEQ ID NO:21)	–	~10%	–
CN(C)C(=N)N=C(N)N [Metformin]	did not induce any FRET variation	–	–
AMPfret A: AMPK heterotrimer: rat alpha2-CFP (SEQ ID NO:5), human beta2-YFP (SEQ ID NO:11), rat gamma1 (SEQ ID NO:15)	–	~10%	–
